# Test results published in article PMC12291851, “Hydrogen Sulfide (H2S)-Donating Formyl Peptide Receptor 2 (FPR2) Agonists: Design, Synthesis, and Biological Evaluation in Primary Mouse Microglia Culture” (Antioxidants, 2025).
# Legend:
# [1] = system: APP/PS1 mice; design: method as in PMID 34468933; details: in vivo administration, ref [21]; cited from earlier work
# [2] = Cell-free MTT-based H2S release assay; type: physicochemical; details: 24 h incubation in MEM with 10% DMSO
# Description: Solutions at different concentrations of each compound in 100 µL of serum-free MEM/10% DMSO with 0.5 mg/mL 3-(4,5-dimethylthiazol-2yl)-2,5-diphenyltetrazolium bromide (MTT) were incubated for 5 h or 24 h in a humidified incubator at 37 °C in 5% CO2 atmosphere. The experimental design comprised blank wells containing only medium and MTT, and a H2S calibration curve obtained by incubating nine solutions at decreasing concentrations (100 µM to 0.01 µM) of NaHS in medium and MTT. At the end of incubation time, the supernatant was removed, the […] crystals were dissolved in 100 µL DMSO/EtOH (1:1 v/v), and absorbance values were read using a Victor 3 plate reader (PerkinElmer, Shelton, CT, USA) at 570 nm. H2S values are expressed as mean ± S.E.M. of the results of three independent experiments conducted in triplicate, and were plotted using GraphPad Prism 7.
# To decipher such results and considering the redox properties of H2S, we questioned if H2S released by our compounds in the culture media could interfere with the conversion of MTT (3-[4,5-dimethylthiazol-2-yl]-2,5-diphenyl tetrazolium bromide) to formazan, which is usually related to cell viability. Thus, we ran cell-free experiments in which MTT was used as the substrate to capture the reductive action of H2S. We found, in agreement with Gerő et al., that some of our thioureas and thioamides reduced MTT to formazan after 24 h incubation in MEM with 10% DMSO.
# [3] = system: HepG2 cells; test: Intracellular H2S release with WSP-1 probe; type: cell-based, human; details: HepG2, tested concentrations 100-300 μM, 60 min
# Description: All cell culture reagents were purchased from S.I.A.L. S.r.l. (Rome, Italy). WSP-1 (Washington State Probe-1, 3′-methoxy-3-oxo-3H-spiro[isobenzofuran-1,9′-xanthen]-6′-yl 2-(pyridine-2-yl-disulfanyl benzoate), was obtained from Cayman Chemical (Cayman, Ann Arbor, MI, USA). HepG2, human hepatocellular carcinoma cells, was obtained from American Type Culture Collection (ATCC, Bethesda, MD, USA). Human hepatocellular carcinoma cells (HepG2) were cultured in Minimum Essential Eagle’s Medium. This medium was supplemented with 10% (v/v) Fetal Bovine Serum, 1% (v/v) Glutamine and 1% (v/v) Penicillin-Streptomycin, 1% non-essential amino acids. Cells were cultivated at 37 °C with 5% CO2 at saturated humidity.
# These experiments were carried out as already described. HepG2 cells were cultured up to about 90% confluence, and 24 h before the experiment cells were seeded into a 96-well flat bottom black plate (50,000 cells per well). After 24 h, the medium was replaced and cells were incubated at 37 °C for 30 min with a 10 mM solution of the fluorescent WSP-1 probe, which is highly sensitive for H2S detection. After incubation, the supernatant was removed and replaced with different concentrations (100, 200, and 300 µM) of the tested compounds dissolved in HBSS buffer. […] ADT 100 µM was used as a slow H2S-donor reference compound. Data were analyzed by one-way ANOVA for repeated measures, followed by post hoc Bonferroni’s multiple comparison test. Results are expressed as mean ± SEM of 3 independent experiments in triplicate. Statistical significance was accepted at a level of p < 0.05.
# Next, we assessed the intracellular H2S release of thioureas and thioamides in HepG2 cells. The compounds were tested at different concentrations (100–300 μM) to evaluate if the release was dose-dependent. We also assayed ADT-OH and TIA as reference H2S-donors, and 3a as a negative control. The results were normalized to the fluorescence signal obtained with 100 μM ADT-OH.
# [4] = Cell-free H2S release fluorescence assay with probe 9 (7-azido-4-methylcoumarin); type: physicochemical; details: overall, 24 h and 48 h, PBS/DMSO 10%
# Description: The H2S release fluorescence assay was carried out in a final volume of 100 μL PBS/DMSO 10% in black 96-well plates. Solutions with decreasing concentrations of each tested compound were prepared in PBS/DMSO 10%. Then, 50 μL of each solution was dispensed in triplicate in each well. Starting from a 10 mM stock solution, a 200 μM solution of probe 9 was prepared and stored in the dark until 50 μL was dispensed in each well. Blank wells containing only the probe at 100 μM in 100 μL of PBS/DMSO 10% are also prepared. A H2S calibration curve was obtained by incubating solutions of NaSH with the probe under the same conditions, although a different plate was used to minimize interferences due to the diffusion of rapidly released H2S. After 24 h and 48 h incubation in a humidified incubator at 37 °C, 5% CO2, fluorescence reads are obtained from each well with a plate reader TECAN M1000 Pro (Tecan, Männedorf, Switzerland), at λex = 350 nm and λem = 440 nm. Each experiment was replicated at least three times. The data were processed using Microsoft Excel (Microsoft, Redmond, WA, USA) and GraphPad Prism 7 (GraphPad Software, La Jolla, CA, USA).
# Compound 9 is a turn-on fluorescent probe that features an azido moiety which can be reduced to amine by H2S, leading to the formation of the fluorescent derivative 7-amino-4-methylcoumarin 10 (λex = 350 nm and λem = 440 nm, Scheme 2). We included NaHS in the assay as a positive control and 3a as a negative control.
# [5] = system: LPS-stimulated rat primary microglial cells and mice organotypic hippocampal cultures; details: LPS stimulation; ref [19],[20]; cited from earlier work
# [6] = system: mouse models of autism spectrum disorder; design: method as in PMID 35215274; details: chronic administration; ref [22]; cited from earlier work
# [7] = system: HepG2 hepatocarcinoma cells; test: MTT cell viability assay, MTT added directly to treated media; type: cell-based, human; details: HepG2, highest tested doses 200 and 20 µM, vehicle 5% DMSO
# Description: The cytotoxicity of our compounds was assessed using the well-established MTT assay. HepG2 hepatocarcinoma cells were cultured in Minimum Essential Medium (MEM) (Euroclone, Pero, Italy), supplemented with 10% fetal bovine serum (Euroclone, Pero, Italy), 100 U/mL penicillin, and 100 µg/mL streptomycin sulfate, at 37 °C in a humidified incubator in 5% CO2 atmosphere. For the MTT assays, these cells were cultured up to about 90% confluence and were then seeded at a concentration of 20,000 cells per well in 96-well plates. After 24 h, the culture medium was replaced with solutions at various concentrations of each compound in MEM/DMSO 5% (v/v). Control wells were incorporated in the experimental design, consisting of vehicle (MEM/DMSO 5%) and pure medium controls.
# In the first round of cytotoxicity assays, 0.5 mg/mL MTT was added to each well 2 or 24 h from treatment and left to incubate for 3–5 h. In the second round of cytotoxicity assays, at 2 or 24 h after treatment, treated media were removed, the cells were washed once in PBS, and fresh medium containing 0.5 mg/mL MTT was added to each well and left to incubate for 3–5 h.
# Subsequently, the supernatant was removed, and the formazan crystals were dissolved in DMSO/EtOH 1:1 (100 µL/well). Absorbance values were then recorded from each well using a Victor 3 plate reader (PerkinElmer, Shelton, CT, USA) at 570 nm. All presented data were obtained from 3 to 5 experiments performed in triplicate. Cell viability values are expressed as mean ± S.E.M. and were plotted using GraphPad Prism 7.
# Next, we assessed H2S release in a biological environment using human hepatocarcinoma HepG2 cells as a model. The intracellular release of H2S was detected with the WSP-1 probe, a turn-on fluorescent probe that selectively and irreversibly reacts with H2S. Considering that a high micromolar concentration of the test compounds is required to obtain a robust fluorescent signal, we first evaluated the compounds’ cytotoxicity after 2 h and 24 h of incubation with the MTT assay in HepG2 cells. […] We accounted for this by adding a vehicle control with 5% DMSO and a control without DMSO to our experimental design.
smiles,measurement,setting,value
"N#Cc1ccc(C[C@H](NC(=O)Nc2ccc(F)cc2)C(=O)NCC2(c3ccc(F)c(Cl)c3)CC2)cc1 [3a, (S)-N-[[1-(3-chloro-4-fluorophenyl)cyclopropyl]methyl]-3-(4-cyanophenyl)-2-[3-(4-fluorophenyl)ureido]propenamide, reference compound]","neuronal survival, microglial cell density and plaque load",[1],improvement of neuronal survival and decreased microglial cell density and plaque load
same,absorbance signal (MTT reduction to formazan) indicative of H2S release,[2],no signal
same,"intracellular H2S release, WSP-1 fluorescence signal vs vehicle",[3],comparable to that of the vehicle
same,H2S release detected with probe 9 in aqueous media,[4],no response
same,effect on LPS-induced pro- and anti-inflammatory cytokine levels,[5],anti-inflammatory properties
same,inflammatory markers and social behavior,[6],"improved inflammatory markers, with a beneficial effect on social behavior"
same,mortality compared to vehicle (MTT),[7],> 50%
